Reference: the kinase profiling compilation of Christmann-Franck et al. (2016)

Assays:
Experiment in all cases: KINOMEscan competition binding
Settings in all cases: compound 10.0 µM
[1] = biological target: EPHA2 (human) (UniProt P29317)
[2] = biological target: CDK4 CCND3 (human) (UniProt P11802+P30281)
[3] = biological target: PTK2B (human) (UniProt Q14289)
[4] = tested on: RET (human), P07949 [V804M]
[5] = biological target: PKN3 (M.tuberculosis) (UniProt Q6P5Z2)
[6] = biological target: ROCK1 (human) (UniProt Q13464)
[7] = biological target: YSK4 (human) (UniProt Q56UN5)
[8] = biological target: MAP2K6 (human) (UniProt P52564)
[9] = biological target: MAP3K10 (human) (UniProt Q02779)
[10] = biological target: STK24 (human) (UniProt Q9Y6E0)
[11] = biological target: SIK2 (human) (UniProt Q9H0K1)
[12] = biological target: CDK18 (human) (UniProt Q07002)
[13] = biological target: CLK3 (human) (UniProt P49761)
[14] = biological target: FGR (human) (UniProt P09769)
[15] = biological target: LCK (human) (UniProt P06239)
[16] = biological target: YES1 (human) (UniProt P07947)
[17] = biological target: JAK1 JH1 catalytic (human) (UniProt P23458)
[18] = biological target: NTRK2 (human) (UniProt Q16620)
[19] = biological target: STK38L (human) (UniProt Q9Y2H1)
[20] = biological target: CDK11B (human) (UniProt P21127)
[21] = biological target: SRPK2 (human) (UniProt P78362)
[22] = biological target: MLTK (human) (UniProt Q9NYL2)
[23] = biological target: FLT4 (human) (UniProt P35916)
[24] = biological target: CDK16 (human) (UniProt Q00536)
[25] = biological target: FGFR2 (human) (UniProt P21802)
[26] = biological target: GRK4 (human) (UniProt P32298)
[27] = biological target: GRK1 (human) (UniProt Q15835)
[28] = biological target: MUSK (human) (UniProt O15146)
[29] = biological target: TAOK2 (human) (UniProt Q9UL54)
[30] = tested on: CPK1 (P.falciparum)
[31] = biological target: PIP4K2C (human) (UniProt Q8TBX8)
[32] = biological target: TLK1 (human) (UniProt Q9UKI8)
[33] = biological target: CaMK1 (human) (UniProt Q14012)
[34] = biological target: CDKL5 (human) (UniProt O76039)
[35] = biological target: CDKL2 (human) (UniProt Q92772)
[36] = biological target: GRK7 (human) (UniProt Q8WTQ7)
[37] = biological target: PDGFRA (human) (UniProt P16234)
[38] = tested on: EGFR (human), P00533 [752-759 del]
[39] = biological target: MKNK2 (human) (UniProt Q9HBH9)
[40] = biological target: STK33 (human) (UniProt Q9BYT3)

FLT4 (human), sequence (P35916 whole entry, looked up): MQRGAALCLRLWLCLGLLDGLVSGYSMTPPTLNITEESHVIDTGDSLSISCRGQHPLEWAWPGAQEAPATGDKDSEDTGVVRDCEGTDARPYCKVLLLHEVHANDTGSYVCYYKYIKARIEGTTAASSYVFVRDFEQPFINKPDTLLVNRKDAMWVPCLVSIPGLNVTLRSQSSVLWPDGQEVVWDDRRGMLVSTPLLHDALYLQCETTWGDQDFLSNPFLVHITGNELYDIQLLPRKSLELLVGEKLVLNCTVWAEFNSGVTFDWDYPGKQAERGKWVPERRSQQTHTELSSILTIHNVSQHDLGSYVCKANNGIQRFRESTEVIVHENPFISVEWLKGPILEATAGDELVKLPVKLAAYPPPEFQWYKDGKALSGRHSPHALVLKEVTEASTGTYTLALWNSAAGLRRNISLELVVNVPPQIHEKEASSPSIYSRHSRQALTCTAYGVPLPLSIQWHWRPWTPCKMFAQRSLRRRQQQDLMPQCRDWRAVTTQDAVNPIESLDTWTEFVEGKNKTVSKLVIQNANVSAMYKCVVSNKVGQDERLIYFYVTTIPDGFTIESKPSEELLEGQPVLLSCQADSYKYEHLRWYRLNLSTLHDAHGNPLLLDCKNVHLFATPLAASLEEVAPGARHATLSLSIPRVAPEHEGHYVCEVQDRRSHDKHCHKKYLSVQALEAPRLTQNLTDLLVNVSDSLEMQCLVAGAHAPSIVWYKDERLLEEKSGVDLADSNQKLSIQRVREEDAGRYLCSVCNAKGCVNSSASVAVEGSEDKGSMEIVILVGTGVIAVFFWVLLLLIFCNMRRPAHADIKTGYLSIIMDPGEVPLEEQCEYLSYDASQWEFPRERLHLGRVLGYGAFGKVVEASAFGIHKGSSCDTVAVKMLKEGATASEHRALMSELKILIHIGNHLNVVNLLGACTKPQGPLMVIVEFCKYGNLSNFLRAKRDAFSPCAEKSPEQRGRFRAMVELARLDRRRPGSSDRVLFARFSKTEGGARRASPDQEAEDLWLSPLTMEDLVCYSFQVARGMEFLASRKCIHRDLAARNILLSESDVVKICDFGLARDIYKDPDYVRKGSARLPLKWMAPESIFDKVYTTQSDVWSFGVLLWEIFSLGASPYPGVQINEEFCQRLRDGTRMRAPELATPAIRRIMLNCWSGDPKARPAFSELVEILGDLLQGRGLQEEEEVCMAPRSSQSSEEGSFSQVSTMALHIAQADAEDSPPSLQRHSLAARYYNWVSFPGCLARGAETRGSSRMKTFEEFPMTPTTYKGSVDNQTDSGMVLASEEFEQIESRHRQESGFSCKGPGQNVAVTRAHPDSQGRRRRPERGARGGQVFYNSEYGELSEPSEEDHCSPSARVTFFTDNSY
RET (human), P07949 [V804M], sequence (P07949 whole entry V804M, looked up): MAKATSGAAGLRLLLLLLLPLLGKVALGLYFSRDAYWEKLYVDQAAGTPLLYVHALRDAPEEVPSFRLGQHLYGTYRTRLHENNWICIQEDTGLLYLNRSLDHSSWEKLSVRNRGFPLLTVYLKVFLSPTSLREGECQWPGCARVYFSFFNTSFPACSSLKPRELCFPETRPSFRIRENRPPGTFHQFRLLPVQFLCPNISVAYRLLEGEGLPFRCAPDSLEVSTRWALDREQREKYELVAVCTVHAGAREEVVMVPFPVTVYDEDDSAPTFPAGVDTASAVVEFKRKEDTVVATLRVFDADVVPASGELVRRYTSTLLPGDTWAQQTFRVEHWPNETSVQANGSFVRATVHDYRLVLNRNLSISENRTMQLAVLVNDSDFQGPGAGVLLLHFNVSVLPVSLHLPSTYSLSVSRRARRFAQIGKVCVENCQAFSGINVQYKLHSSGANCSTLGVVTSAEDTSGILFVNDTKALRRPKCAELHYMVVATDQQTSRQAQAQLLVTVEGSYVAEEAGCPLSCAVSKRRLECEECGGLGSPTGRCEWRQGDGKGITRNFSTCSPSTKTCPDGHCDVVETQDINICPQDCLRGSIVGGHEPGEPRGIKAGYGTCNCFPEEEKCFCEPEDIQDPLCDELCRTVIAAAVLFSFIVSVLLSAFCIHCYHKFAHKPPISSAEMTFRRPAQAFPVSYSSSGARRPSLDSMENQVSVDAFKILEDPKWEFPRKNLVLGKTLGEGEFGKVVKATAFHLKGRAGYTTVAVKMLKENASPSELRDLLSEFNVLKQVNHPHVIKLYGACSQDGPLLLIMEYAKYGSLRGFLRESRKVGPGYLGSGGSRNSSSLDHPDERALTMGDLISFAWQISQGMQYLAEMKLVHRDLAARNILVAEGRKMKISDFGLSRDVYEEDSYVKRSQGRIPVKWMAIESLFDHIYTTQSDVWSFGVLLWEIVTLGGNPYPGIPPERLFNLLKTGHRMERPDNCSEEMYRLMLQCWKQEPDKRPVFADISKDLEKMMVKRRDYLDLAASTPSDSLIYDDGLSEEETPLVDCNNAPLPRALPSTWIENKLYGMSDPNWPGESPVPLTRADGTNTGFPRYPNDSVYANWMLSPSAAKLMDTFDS
CDK16 (human), sequence (Q00536 whole entry, looked up): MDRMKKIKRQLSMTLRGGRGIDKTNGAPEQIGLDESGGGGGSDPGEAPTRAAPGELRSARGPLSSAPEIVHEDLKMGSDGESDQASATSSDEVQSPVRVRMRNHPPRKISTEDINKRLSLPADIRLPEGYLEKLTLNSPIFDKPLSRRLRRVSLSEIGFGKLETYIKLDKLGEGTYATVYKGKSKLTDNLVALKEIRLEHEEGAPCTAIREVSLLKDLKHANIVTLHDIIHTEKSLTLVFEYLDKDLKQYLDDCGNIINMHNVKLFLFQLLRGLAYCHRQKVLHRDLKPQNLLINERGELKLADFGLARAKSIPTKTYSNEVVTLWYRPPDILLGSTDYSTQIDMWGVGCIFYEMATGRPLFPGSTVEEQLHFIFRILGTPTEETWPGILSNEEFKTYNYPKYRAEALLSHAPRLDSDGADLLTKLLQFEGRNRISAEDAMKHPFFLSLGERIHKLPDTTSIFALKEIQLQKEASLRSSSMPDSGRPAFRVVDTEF
NTRK2 (human), sequence (Q16620 whole entry, looked up): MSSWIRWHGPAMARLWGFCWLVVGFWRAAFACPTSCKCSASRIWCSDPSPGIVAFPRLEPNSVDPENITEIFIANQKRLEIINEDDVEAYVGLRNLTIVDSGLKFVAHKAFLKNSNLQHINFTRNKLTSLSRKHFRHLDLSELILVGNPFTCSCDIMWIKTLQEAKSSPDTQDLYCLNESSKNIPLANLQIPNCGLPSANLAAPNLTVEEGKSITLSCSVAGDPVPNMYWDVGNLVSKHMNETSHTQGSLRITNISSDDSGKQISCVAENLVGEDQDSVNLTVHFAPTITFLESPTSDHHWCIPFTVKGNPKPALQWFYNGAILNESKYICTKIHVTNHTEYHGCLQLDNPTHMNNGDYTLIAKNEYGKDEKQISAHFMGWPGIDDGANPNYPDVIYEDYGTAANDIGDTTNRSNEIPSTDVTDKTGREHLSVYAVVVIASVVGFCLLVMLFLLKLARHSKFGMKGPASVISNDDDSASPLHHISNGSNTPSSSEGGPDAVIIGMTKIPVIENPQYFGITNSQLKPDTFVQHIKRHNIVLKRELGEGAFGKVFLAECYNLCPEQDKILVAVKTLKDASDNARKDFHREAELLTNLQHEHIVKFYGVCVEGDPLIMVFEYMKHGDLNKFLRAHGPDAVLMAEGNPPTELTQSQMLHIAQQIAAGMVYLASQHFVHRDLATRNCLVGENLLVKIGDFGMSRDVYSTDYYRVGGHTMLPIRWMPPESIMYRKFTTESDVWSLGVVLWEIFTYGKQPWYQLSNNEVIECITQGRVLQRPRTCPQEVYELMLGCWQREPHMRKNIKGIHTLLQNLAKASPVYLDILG
CDKL5 (human), sequence (O76039 whole entry, looked up): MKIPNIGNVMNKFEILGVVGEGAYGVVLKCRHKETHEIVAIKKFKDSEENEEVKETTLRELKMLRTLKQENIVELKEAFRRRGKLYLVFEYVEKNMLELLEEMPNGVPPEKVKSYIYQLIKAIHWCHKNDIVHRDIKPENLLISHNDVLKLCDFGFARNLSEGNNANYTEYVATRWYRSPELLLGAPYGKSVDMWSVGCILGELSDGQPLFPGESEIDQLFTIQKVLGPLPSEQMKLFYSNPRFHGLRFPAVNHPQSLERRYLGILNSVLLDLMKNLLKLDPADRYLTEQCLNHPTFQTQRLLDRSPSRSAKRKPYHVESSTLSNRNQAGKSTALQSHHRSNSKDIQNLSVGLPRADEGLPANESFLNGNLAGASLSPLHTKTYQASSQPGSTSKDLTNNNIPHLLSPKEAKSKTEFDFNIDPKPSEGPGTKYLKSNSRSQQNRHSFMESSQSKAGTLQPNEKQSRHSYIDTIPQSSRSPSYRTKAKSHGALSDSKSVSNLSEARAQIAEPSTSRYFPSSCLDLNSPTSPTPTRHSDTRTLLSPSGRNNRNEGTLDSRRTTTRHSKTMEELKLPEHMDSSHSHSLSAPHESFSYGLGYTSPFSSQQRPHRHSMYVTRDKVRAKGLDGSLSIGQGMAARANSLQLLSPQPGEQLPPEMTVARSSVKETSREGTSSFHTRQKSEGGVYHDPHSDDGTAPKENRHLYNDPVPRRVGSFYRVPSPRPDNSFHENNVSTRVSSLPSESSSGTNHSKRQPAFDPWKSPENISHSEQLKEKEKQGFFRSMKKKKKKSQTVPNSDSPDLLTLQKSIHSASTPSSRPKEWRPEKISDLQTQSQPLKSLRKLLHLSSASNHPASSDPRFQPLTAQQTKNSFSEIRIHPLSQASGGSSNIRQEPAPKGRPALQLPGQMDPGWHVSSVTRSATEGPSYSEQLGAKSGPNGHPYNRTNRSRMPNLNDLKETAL
MAP2K6 (human), sequence (P52564 whole entry, looked up): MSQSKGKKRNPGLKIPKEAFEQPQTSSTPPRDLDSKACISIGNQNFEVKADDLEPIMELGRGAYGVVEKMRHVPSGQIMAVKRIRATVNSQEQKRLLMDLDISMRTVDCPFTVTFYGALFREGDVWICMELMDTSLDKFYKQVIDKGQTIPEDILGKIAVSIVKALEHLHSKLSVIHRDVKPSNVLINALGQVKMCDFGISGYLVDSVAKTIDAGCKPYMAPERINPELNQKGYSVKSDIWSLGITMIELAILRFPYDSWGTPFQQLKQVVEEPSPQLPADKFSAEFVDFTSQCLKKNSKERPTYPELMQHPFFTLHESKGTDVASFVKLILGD

Row | Structure (SMILES) | kinase still bound, per cent of control [1] [%] | kinase still bound, per cent of control [2] [%] | kinase still bound, per cent of control [3] [%] | kinase still bound, per cent of control [4] [%] | kinase still bound, per cent of control [5] [%] | kinase still bound, per cent of control [6] [%] | kinase still bound, per cent of control [7] [%] | kinase still bound, per cent of control [8] [%] | kinase still bound, per cent of control [9] [%] | kinase still bound, per cent of control [10] [%] | kinase still bound, per cent of control [11] [%] | kinase still bound, per cent of control [12] [%] | kinase still bound, per cent of control [13] [%] | kinase still bound, per cent of control [14] [%] | kinase still bound, per cent of control [15] [%] | kinase still bound, per cent of control [16] [%] | kinase still bound, per cent of control [17] [%] | kinase still bound, per cent of control [18] [%] | kinase still bound, per cent of control [19] [%] | kinase still bound, per cent of control [20] [%] | other results
1 | O=c1cc(N2CCOCC2)oc2c(-c3cccc4c3sc3ccccc34)cccc12 | 72 | 100 | 94 | 95 | 6.6 | 100 | 100 | 73 | 100 | 86 | 75 | 100 | 100 | 92 | 90 | 94 | 100 | 100 | 95 | 95 | kinase still bound, per cent of control [21]: 78%; kinase still bound, per cent of control [22]: 93%; kinase still bound, per cent of control [23]: 92%; kinase still bound, per cent of control [24]: 97%; kinase still bound, per cent of control [25]: 82%; kinase still bound, per cent of control [26]: 100%; kinase still bound, per cent of control [27]: 100%; kinase still bound, per cent of control [28]: 100%; kinase still bound, per cent of control [29]: 98%; kinase still bound, per cent of control [30]: 98%; kinase still bound, per cent of control [31]: 89%; kinase still bound, per cent of control [32]: 71%; kinase still bound, per cent of control [33]: 91%; kinase still bound, per cent of control [34]: 100%; kinase still bound, per cent of control [35]: 96%; kinase still bound, per cent of control [36]: 92%; kinase still bound, per cent of control [37]: 100%; kinase still bound, per cent of control [38]: 100%; kinase still bound, per cent of control [39]: 87%; kinase still bound, per cent of control [40]: 100%
2 | COc1cc(C(=O)N2CCC(N3CCN(C)CC3)CC2)ccc1Nc1ncc2c(n1)N(C)c1ccccc1C(=O)N2C | 92 | 100 | 78 | 80 | 100 | 100 | 99 | 83 | 100 | 87 | 98 | 100 | 95 | 84 | 100 | 100 | 100 | 100 | 100 | 84 | kinase still bound, per cent of control [21]: 100%; kinase still bound, per cent of control [22]: 99%; kinase still bound, per cent of control [23]: 100%; kinase still bound, per cent of control [24]: 96%; kinase still bound, per cent of control [25]: 95%; kinase still bound, per cent of control [26]: 86%; kinase still bound, per cent of control [27]: 91%; kinase still bound, per cent of control [28]: 99%; kinase still bound, per cent of control [29]: 65%; kinase still bound, per cent of control [30]: 100%; kinase still bound, per cent of control [31]: 40%; kinase still bound, per cent of control [32]: 100%; kinase still bound, per cent of control [33]: 55%; kinase still bound, per cent of control [34]: 100%; kinase still bound, per cent of control [35]: 100%; kinase still bound, per cent of control [36]: 100%; kinase still bound, per cent of control [37]: 100%; kinase still bound, per cent of control [38]: 99%; kinase still bound, per cent of control [39]: 1.2%; kinase still bound, per cent of control [40]: 10%
3 | C=CC(=O)Nc1cc(-n2c(=O)ccc3cnc4ccc(-c5cn[nH]c5)cc4c32)ccc1C | 85 | 87 | 96 | 68 | 12 | 94 | 1.2 | 53 | 100 | 95 | 62 | 88 | 46 | 57 | 64 | 94 | 97 | 51 | 100 | 100 | kinase still bound, per cent of control [21]: 96%; kinase still bound, per cent of control [22]: 6.9%; kinase still bound, per cent of control [23]: 65%; kinase still bound, per cent of control [24]: 97%; kinase still bound, per cent of control [25]: 94%; kinase still bound, per cent of control [26]: 84%; kinase still bound, per cent of control [27]: 75%; kinase still bound, per cent of control [28]: 93%; kinase still bound, per cent of control [29]: 76%; kinase still bound, per cent of control [30]: 11%; kinase still bound, per cent of control [31]: 2.7%; kinase still bound, per cent of control [32]: 100%; kinase still bound, per cent of control [33]: 96%; kinase still bound, per cent of control [34]: 3.3%; kinase still bound, per cent of control [35]: 17%; kinase still bound, per cent of control [36]: 52%; kinase still bound, per cent of control [37]: 21%; kinase still bound, per cent of control [38]: 23%; kinase still bound, per cent of control [39]: 0.15%; kinase still bound, per cent of control [40]: 100%
